Reference: paper PMC9457773 (Molecules, 2022)
Where two headings read alike, the source gives them in different places. Values belong to the molecule of their own block, whether it stands above or below them.

Assays:
[1] = Pharmacokinetic and drug–drug interaction study in rats (plasma, UPLC–MS/MS); settings: for AUC(0-inf): AUCinf; for AUC(0-t): AUClast; for CL/F: CLz/F; for Tmax: median (range); for Vd/F: Vz/F; for half-life: t1/2z
Procedure: First, 50 μL of the plasma sample was added to 5 μL of the mixture IS working solution and 500 μL of the extraction reagent (methyl tert-butyl ether and ethyl acetate, 1:4) vortex-mixed for 3 min and then centrifuged at 12,000 rpm for 10 min. Next, 400 μL of supernatant was transferred into a new centrifuge tube, which was blown dry under a stream of nitrogen, and the residue was re-solubilized with 150 μL of 50% acetonitrile–water.
The concentrations of analytes were determined by UPLC–MS/MS, which consisted of an LC-30A ultra-performance liquid chromatography (Shimadzu, Japan), and Sciex Triple Quad 5500 tandem triple quadrupole mass spectrometer (Applied Biosystems Sciex, Framingham, MA, USA). The XSelect HSS T3 column (2.1 mm × 100 mm, 2.5 μm, Waters, Milford, MA, USA) was used for chromatographic separation. Phase A (0.1% formic acid in ultrapure water containing 5 mM ammonium acetate) and phase B (acetonitrile) were used as the mobile phases for gradient elution at 0.35 mL/min.
The experimental animals were randomly divided into five groups (n = 6 per group). […] Approximately 0.25 mL of blood was collected from the orbital venous plexus of rats in pre-heparinized centrifuge tubes. […] Blood samples were centrifuged at 3500 rpm for 10 min, and the plasma was transferred to new centrifuge tubes and then stored at −80 °C.
The Cmax and Tmax (time to maximum plasma concentration) were read directly from the drug concentrations. The other pharmacokinetic parameters were analyzed using a non-compartmental analysis with Phoenix WinNonLin 8.2 software (Pharsight, Mountain View, Certara, CA, USA).

[2] = literature value, Introduction; cited from earlier work
[3] = literature statement in words, Introduction, cited from earlier work
[4] = rat; for Stability, Bench-Top: measured concentration: 4 h; for Stability, Autosampler: measured concentration: 12 h; for Stability, Long-Term: measured concentration: 30 days
Procedure: (§1) A 5 μL aliquot of the mixed working solution was added to 45 μL of blank plasma to prepare the calibration standards.
(§2) The selectivity of the method was assessed by comparing the chromatograms of six independent blank rat plasma samples, simulated plasma samples in which blank rat plasma samples were spiked with working solution at a lower limit of quantitation (LLOQ) and IS, and actual plasma samples collected from rats. […] Different concentrations of the QC and LLOQ samples, with six replicates at each concentration, were used to evaluate precision and accuracy, and inter-batch precision and accuracy were evaluated by measurements for three consecutive days. The precision was expressed as the coefficient of variation (CV%), and the accuracy was expressed as the relative error (RE%). The extraction recovery was evaluated by comparing the peak areas of blank plasma spiked with working solution pre-extraction and blank plasma spiked with working solution post-extraction. The matrix effect was evaluated by the ratio of the peak area of the analyte in the plasma to the peak area of the analyte in solution at three concentrations of the QC samples. […] Three concentrations of the QC samples, with six replicates at each concentration level, were used to examine the stability of the three analytes at room temperature for 4 h, in the autosampler for 12 h, at −80 °C for 30 days, and freeze–thaw three times.

[5] = literature value, Introduction, cited from earlier work
[6] = Stability of QC samples in rat plasma under various storage conditions; settings: for Stability, Autosampler: measured concentration / Stability, Freeze-Thaw: measured concentration / Stability, Bench-Top: measured concentration / Stability, Long-Term: measured concentration: rat plasma QC, n = 6; for Stability, Autosampler: measured concentration: autosampler for 12 h; for Stability, Freeze-Thaw: measured concentration: freeze–thaw three times; for Stability, Bench-Top: measured concentration: room temperature for 4 h; for Stability, Long-Term: measured concentration: −80 °C for 30 days
Procedure: as §1, §2

[7] = Sprague Dawley, rat, plasma, po, 1.2 mg/kg, lenvatinib in rat plasma, lenvatinib 1.2 mg/kg oral co-administered with canagliflozin 10 mg/kg (VLEN+CA), n = 6, mean ± SD
[8] = Sprague Dawley, rat, plasma, po, 1.2 mg/kg, lenvatinib in rat plasma, oral single dose lenvatinib 1.2 mg/kg alone (IILEN), n = 6, mean ± SD
[9] = lenvatinib (1.2 mg/kg) in the presence of canagliflozin (10 mg/kg) compared to lenvatinib alone, rats
[10] = lenvatinib in rat plasma, oral single dose lenvatinib 1.2 mg/kg alone (IILEN), n = 6, mean ± SD
[11] = Sprague Dawley, rat, plasma, po, 100 mg/kg, sorafenib in rat plasma, oral single dose sorafenib 100 mg/kg alone (ISOR), n = 6, mean ± SD
[12] = Sprague Dawley, rat, plasma, po, 100 mg/kg, sorafenib in rat plasma, sorafenib 100 mg/kg oral co-administered with canagliflozin 10 mg/kg (IVSOR+CA), n = 6, mean ± SD

AUC(0-inf) [1, 7]: 7280 ± 1170 ng·h/mL
AUC(0-t) [1, 7]: 7280 ± 1170 ng·h/mL
CL/F [1, 7]: 2.83 mL/min/kg
CL/F [1, 8]: 3.67 mL/min/kg
Cmax [1, 7]: 985 ± 162 ng/mL
Cmax [1, 8]: 721 ± 144 ng/mL
Tmax ([1]; Sprague Dawley, rat, plasma, po, 1.2 mg/kg, Tmax, lenvatinib in rat plasma, oral single dose lenvatinib 1.2 mg/kg alone (IILEN), n = 6): 1.75 h
Vd/F [1, 7]: 1.56 ± 0.29 L/kg
Vd/F [1, 8]: 3.31 ± 1.51 L/kg
half-life [1, 7]: 6.49 ± 1.04 h
half-life [1, 8]: 10.5 ± 4.53 h
decrease of CLz/F [1, 9]: 22.7%
decrease of Vz/F [1, 9]: 52.9%
decrease of t1/2 [1, 9]: 38%
increase of AUCinf [1, 9]: 28.9%
increase of AUClast [1, 9]: 28.9%
increase of Cmax [1, 9]: 36.2%
Tmax ([1]; lenvatinib in rat plasma, lenvatinib 1.2 mg/kg oral co-administered with canagliflozin 10 mg/kg (VLEN+CA), n = 6): 1.50 (0.88–1.63) h
AUCinf [1, 10]: 5653 ± 1299 ng·h/mL
AUClast [1, 10]: 5640 ± 1292 ng·h/mL
increase of AUC ([1]; lenvatinib in the presence of canagliflozin, rats, abstract, AUC not specified as last or inf): 28.9%
Stability, Freeze-Thaw: measured concentration ([4]; 0.5 ng/mL): 0.53 ± 0.03 ng/mL
Stability, Freeze-Thaw: measured concentration ([4]; 150 ng/mL): 157.33 ± 11.02 ng/mL
Stability, Freeze-Thaw: measured concentration ([4]; 800 ng/mL): 725.83 ± 18.06 ng/mL
Stability, Bench-Top: measured concentration ([4]; 0.5 ng/mL): 0.54 ± 0.03 ng/mL
Stability, Bench-Top: measured concentration ([4]; 150 ng/mL): 156.67 ± 7.42 ng/mL
Stability, Bench-Top: measured concentration ([4]; 800 ng/mL): 794.00 ± 18.24 ng/mL
Stability, Autosampler: measured concentration ([4]; 0.5 ng/mL): 0.53 ± 0.04 ng/mL
Stability, Autosampler: measured concentration ([4]; 150 ng/mL): 162.67 ± 7.42 ng/mL
Stability, Autosampler: measured concentration ([4]; 800 ng/mL): 819.50 ± 30.36 ng/mL
Stability, Long-Term: measured concentration ([4]; 0.5 ng/mL): 0.47 ± 0.03 ng/mL
Stability, Long-Term: measured concentration ([4]; 150 ng/mL): 157.00 ± 12.63 ng/mL
Stability, Long-Term: measured concentration ([4]; 800 ng/mL): 714.00 ± 24.44 ng/mL
Compound: COc1cc2nccc(Oc3ccc(NC(=O)NC4CC4)c(Cl)c3)c2cc1C(N)=O [lenvatinib, Lenvatinib]
plasma protein binding rate [2]: approximately 98%
solubility [3]: low
half-life [5]: 28 h

AUC(0-inf) [1, 11]: 40300 ng·h/mL
AUC(0-inf) [1, 12]: 41300 ng·h/mL
AUC(0-t) [1, 11]: 40000 ng·h/mL
AUC(0-t) [1, 12]: 41200 ng·h/mL
CL/F [1, 11]: 47.7 mL/min/kg
CL/F [1, 12]: 42 mL/min/kg
Cmax [1, 11]: 1920 ± 298 ng/mL
Cmax [1, 12]: 2200 ± 535 ng/mL
Vd/F [1, 11]: 49 ± 18.8 L/kg
Vd/F [1, 12]: 38.3 ± 10.1 L/kg
half-life [1, 11]: 12.3 ± 2.23 h
Tmax ([1]; sorafenib in rat plasma, oral single dose sorafenib 100 mg/kg alone (ISOR), n = 6): 8.00 (7.00–8.00) h
t1/2z ([1]; sorafenib in rat plasma, sorafenib 100 mg/kg oral co-administered with canagliflozin 10 mg/kg (IVSOR+CA), n = 6, mean ± SD): 10.47 ± 0.94 h
stability during the different processing and storage conditions ([6]; rat plasma QC samples, room temperature 4 h, autosampler 12 h, −80 °C 30 days, three freeze–thaw cycles): stable
Stability, Autosampler: measured concentration ([6]; nominal 10 ng/mL): 11.13 ± 0.24 ng/mL
Stability, Freeze-Thaw: measured concentration ([6]; nominal 10 ng/mL): 10.55 ± 0.43 ng/mL
Stability, Bench-Top: measured concentration ([6]; nominal 10 ng/mL): 10.97 ± 0.29 ng/mL
Stability, Long-Term: measured concentration ([6]; nominal 10 ng/mL): 10.51 ± 0.43 ng/mL
Stability, Autosampler: measured concentration ([6]; nominal 1500 ng/mL): 1540.00 ± 95.71 ng/mL
Stability, Freeze-Thaw: measured concentration ([6]; nominal 1500 ng/mL): 1531.67 ± 117.88 ng/mL
Stability, Bench-Top: measured concentration ([6]; nominal 1500 ng/mL): 1551.67 ± 84.00 ng/mL
Stability, Long-Term: measured concentration ([6]; nominal 1500 ng/mL): 1565.00 ± 123.25 ng/mL
Stability, Autosampler: measured concentration ([6]; nominal 3750 ng/mL): 3961.67 ± 102.26 ng/mL
Stability, Freeze-Thaw: measured concentration ([6]; nominal 3750 ng/mL): 3698.33 ± 72.78 ng/mL
Stability, Bench-Top: measured concentration ([6]; nominal 3750 ng/mL): 3948.33 ± 99.88 ng/mL
Stability, Long-Term: measured concentration ([6]; nominal 3750 ng/mL): 3583.33 ± 67.43 ng/mL
Compound: CNC(=O)c1cc(Oc2ccc(NC(=O)Nc3ccc(Cl)c(C(F)(F)F)c3)cc2)ccn1 [sorafenib, Sorafenib]
plasma protein binding rate [2]: 99.5%
solubility [3]: poor
permeability ([3]; membrane permeability): high
time to peak blood concentration ([5]; after oral administration): approximately 3 h
